In patent USRE39591E1, “6-O-substituted ketolides having antibacterial activity” (Abbott Laboratories, priority 1996, dated 2007):

Tested on: up to 32 different microorganisms
Assay: in vitro antibacterial activity (MIC), agar dilution on Brain Heart Infusion (BHI) agar with Steers replicator
Assay type: cell-based
Conditions: unit assumed
Method in brief: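 Agar dilution MIC: twelve successive compound dilutions in BHI agar, spot-inoculated with 1:100 (1:10 for slow growers) organism dilutions by Steers replicator, incubated 35-37° C for 20-24 h. MIC is lowest concentration showing no growth, slight haze or sparse colonies versus drug-free control; erythromycin A as class reference.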

[1] = Candida albicans CCH 442 (code TT)
[2] = Enterococcus faecism ATCC 8043 (code II)
[3] = Escherichia coli DC-2 (code SS)
[4] = Escherichia coli JUHL (code QQ)
[5] = Micrococcus luteus ATCC 4698 (code PP)
[6] = Micrococcus luteus ATCC 9341 (code OO)
[7] = Mycobacterium smegmatis ATCC 114 (code UU)
[8] = Nocardia Asteroides ATCC9970 (code VV)
[9] = Staphylococcus aureus 1775 (code GG)
[10] = Staphylococcus aureus A5177 (code BB)
[11] = Staphylococcus aureus A-5278 (code CC)
[12] = Staphylococcus aureus ATCC 6538P (code AA)
[13] = Staphylococcus aureus CMX 553 (code FF)
[14] = Staphylococcus aureus CMX 642A (code DD)
[15] = Staphylococcus aureus NCTC10649M (code EE)
[16] = Staphylococcus epidermidis 3519 (code HH)
[17] = Streptococcus agalactiae CMX 508 (code KK)
[18] = Streptococcus bovis A-5169 (code JJ)
[19] = Streptococcus pyogenes 930 (code MM)
[20] = Streptococcus pyogenes EES61 (code LL)
[21] = Streptococcus pyogenes PIU 2548 (code NN)

Question: How did the MIC (organism code AA) turn out when `CCC1OC(=O)C(C)C(=O)C(C)C(OC2OC(C)CC(N(C)C)C2O)C(C)(OCC=Cc2ccc(F)c3ccccc23)CC(C)C(=O)C(C)C2NC(=O)OC12C` (stereo not drawn) [Example 279, Compound of Formula (IX): L is CO, T is NH2, R is —CH2CH═CH-(4-fluoronaphthyl)] was run?
Answer: 0.39 µg/mL

Question: And the MIC (organism code BB)?
Answer: 0.39 µg/mL

Question: What about the MIC (organism code CC) of the same compound?
Answer: 50 µg/mL

Question: And the MIC (organism code DD)?
Answer: 0.78 µg/mL

Question: What about the MIC (organism code EE) of the same compound?
Answer: 0.39 µg/mL

Question: What about the MIC (organism code FF) of the same compound?
Answer: 0.39 µg/mL

Question: What about the MIC (organism code GG) of the same compound?
Answer: 50 µg/mL

Question: What about the MIC (organism code HH) of the same compound?
Answer: 0.39 µg/mL

Question: And the MIC (organism code II)?
Answer: 0.2 µg/mL

Question: And the MIC (organism code JJ)?
Answer: 0.05 µg/mL

Question: What about the MIC (organism code KK) of the same compound?
Answer: 0.02 µg/mL

Question: What about the MIC (organism code MM) of the same compound?
Answer: 25 µg/mL

Question: And the MIC (organism code NN)?
Answer: 0.39 µg/mL

Question: And the MIC (organism code OO)?
Answer: 0.05 µg/mL

Question: And the MIC (organism code PP)?
Answer: 0.39 µg/mL

Question: And the MIC (organism code QQ)?
Answer: > 100 µg/mL

Question: What about the MIC (organism code RR) of the same compound?
Answer: 1.56 µg/mL

Question: What about the MIC (organism code SS) of the same compound?
Answer: > 100 µg/mL

Question: And the MIC (organism code TT)?
Answer: > 100 µg/mL

Question: What about the MIC (organism code UU) of the same compound?
Answer: 0.78 µg/mL

Question: And the MIC (organism code VV)?
Answer: 0.78 µg/mL

Question: And the MIC (organism code WW)?
Answer: 8 µg/mL

Question: And the MIC (organism code XX)?
Answer: 0.03 µg/mL

Question: And the MIC (organism code YY)?
Answer: 0.03 µg/mL

Question: And the MIC (organism code ZZ)?
Answer: 32 µg/mL

Question: What about the MIC (organism code ZZA) of the same compound?
Answer: 0.5 µg/mL

Question: `CC[C@H]1OC(=O)[C@H](C)C(=O)[C@H](C)[C@@H](O[C@@H]2O[C@H](C)C[C@H](N(C)C)[C@H]2O)[C@@](C)(OCC#N)C[C@@H](C)C(=O)[C@H](C)[C@@H](O)[C@]1(C)O` [Example 7, Compound of Formula (VIII): X is O, R is —CH2CN] was tested. Which MIC [1] did it give?
Answer: > 100 µg/mL

Question: What about the MIC [2] of the same compound?
Answer: 1.56 µg/mL

Question: And the MIC [3]?
Answer: > 100 µg/mL

Question: And the MIC [4]?
Answer: > 100 µg/mL

Question: What about the MIC (Escherichia coli SS (code RR)) of the same compound?
Answer: 3.1 µg/mL

Question: What about the MIC [5] of the same compound?
Answer: 1.56 µg/mL

Question: What about the MIC [6] of the same compound?
Answer: 0.39 µg/mL

Question: What about the MIC [7] of the same compound?
Answer: > 100 µg/mL

Question: What about the MIC [8] of the same compound?
Answer: 0.78 µg/mL

Question: And the MIC [9]?
Answer: > 100 µg/mL

Question: And the MIC [10]?
Answer: 3.1 µg/mL

Question: What about the MIC [11] of the same compound?
Answer: > 100 µg/mL

Question: What about the MIC [12] of the same compound?
Answer: 3.1 µg/mL

Question: What about the MIC [13] of the same compound?
Answer: 3.1 µg/mL

Question: And the MIC [14]?
Answer: 3.1 µg/mL

Question: And the MIC [15]?
Answer: 3.1 µg/mL

Question: And the MIC [16]?
Answer: 3.1 µg/mL

Question: What about the MIC [17] of the same compound?
Answer: 0.78 µg/mL

Question: What about the MIC [18] of the same compound?
Answer: 0.78 µg/mL

Question: And the MIC [19]?
Answer: > 100 µg/mL

Question: And the MIC [20]?
Answer: 1.56 µg/mL

Question: And the MIC [21]?
Answer: 3.1 µg/mL

Question: What does the source list for `CC[C@H]1OC(=O)[C@H](C)C(=O)[C@H](C)[C@@H](O[C@@H]2O[C@H](C)C[C@H](N(C)C)[C@H]2O)[C@@](C)(OCc2ccc3ccccc3c2)C[C@@H](C)C(=O)[C@H](C)[C@H]2NC(=O)O[C@@]21C` [Example 176, Compound of Formula (IX): L is CO, T is NH, R is —CH2-(2-naphthyl)]?
Answer: MIC [1]: > 100 µg/mL; MIC [2]: 0.2 µg/mL; MIC [3]: > 100 µg/mL; MIC [4]: > 100 µg/mL; MIC (Escherichia coli SS (code RR)): 3.1 µg/mL; MIC (Haemophilis influenzae DILL AMP R (code WW)): 64 µg/mL; MIC [5]: 0.2 µg/mL; MIC [6]: 0.05 µg/mL; MIC [7]: 0.78 µg/mL; MIC [8]: 1.56 µg/mL; MIC [9]: 100 µg/mL; MIC [10]: 0.78 µg/mL; MIC [11]: > 100 µg/mL; MIC [12]: 1.56 µg/mL; MIC [13]: 0.78 µg/mL; MIC [14]: 1.56 µg/mL; MIC [15]: 0.78 µg/mL; MIC [16]: 0.78 µg/mL; MIC (Streptococcus Pneumonia 5649 (code ZZA)): 0.25 µg/mL; MIC (Streptococcus Pneumonia 5979 (code ZZ)): 64 µg/mL; MIC (Streptococcus Pneumonia ATCC6303 (code XX)): 0.25 µg/mL; MIC (Streptococcus Pneumonia GYR 1171 (code YY)): 0.25 µg/mL; MIC [17]: 0.05 µg/mL; MIC [18]: 0.05 µg/mL; MIC [19]: 50 µg/mL; MIC [20]: 0.05 µg/mL; MIC [21]: 0.2 µg/mL

Question: Which results are given for `CC[C@H]1OC(=O)[C@H](C)C(=O)[C@H](C)[C@@H](O[C@@H]2O[C@H](C)C[C@H](N(C)C)[C@H]2O)[C@@](C)(OCC#Cc2ccc3cc(OC)ccc3c2)C[C@@H](C)C(=O)[C@H](C)[C@H]2NC(=O)O[C@@]21C` [Example 252, Compound of Formula (IX): L is CO, T is NH, R is —CH2—C≡C-(6-methoxy-2-naphthyl)]?
Answer: MIC (organism code AA): 0.1 µg/mL; MIC (organism code BB): 0.1 µg/mL; MIC (organism code CC): > 100 µg/mL; MIC (organism code DD): 0.1 µg/mL; MIC (organism code EE): 0.1 µg/mL; MIC (organism code FF): 0.1 µg/mL; MIC (organism code GG): > 100 µg/mL; MIC (organism code HH): 0.1 µg/mL; MIC (organism code II): 0.05 µg/mL; MIC (organism code JJ): 0.002 µg/mL; MIC (organism code KK): 0.02 µg/mL; MIC (organism code LL): 0.05 µg/mL; MIC (organism code MM): 3.1 µg/mL; MIC (organism code NN): 0.1 µg/mL; MIC (organism code OO): 0.02 µg/mL; MIC (organism code PP): 0.2 µg/mL; MIC (organism code QQ): > 100 µg/mL; MIC (organism code RR): 0.78 µg/mL; MIC (organism code SS): > 100 µg/mL; MIC (organism code TT): > 100 µg/mL; MIC (organism code UU): 0.2 µg/mL; MIC (organism code VV): 0.05 µg/mL; MIC (organism code WW): 2 µg/mL; MIC (organism code XX): 0.03 µg/mL; MIC (organism code YY): 0.03 µg/mL; MIC (organism code ZZ): 4 µg/mL; MIC (organism code ZZA): 0.25 µg/mL
